# Literature values, collected in patent US20230175054A1, “LASH METHODS FOR SINGLE MOLECULE SEQUENCING & TARGET NUCLEIC ACID DETECTION” (SARMAL, INC., priority 2020, published 2023).
# How the values were obtained:
# [1] = target: T1, Apoaequorin (Aequorea victoria, UniProt P02592); conditions: for λem (nm): luminescence emission with Apoaequorin; for Half-rise time / Relative intensity / Relative luminescence capacity: with Apoaequorin
# T1 sequence (P02592 8-196): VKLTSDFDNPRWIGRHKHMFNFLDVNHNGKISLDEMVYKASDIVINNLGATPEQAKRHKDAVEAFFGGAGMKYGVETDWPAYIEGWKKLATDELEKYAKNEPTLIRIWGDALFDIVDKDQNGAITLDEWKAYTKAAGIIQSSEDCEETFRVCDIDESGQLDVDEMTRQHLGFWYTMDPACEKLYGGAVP
# [2] = target: T2, Renilla Luciferase (Renilla reniformis, UniProt P27652); conditions: for λem (nm): luminescence emission with Renilla Luciferase; for Initial Intensity (%) / Total Light (%): with Renilla Luciferase
# T2 sequence (P27652 1-311): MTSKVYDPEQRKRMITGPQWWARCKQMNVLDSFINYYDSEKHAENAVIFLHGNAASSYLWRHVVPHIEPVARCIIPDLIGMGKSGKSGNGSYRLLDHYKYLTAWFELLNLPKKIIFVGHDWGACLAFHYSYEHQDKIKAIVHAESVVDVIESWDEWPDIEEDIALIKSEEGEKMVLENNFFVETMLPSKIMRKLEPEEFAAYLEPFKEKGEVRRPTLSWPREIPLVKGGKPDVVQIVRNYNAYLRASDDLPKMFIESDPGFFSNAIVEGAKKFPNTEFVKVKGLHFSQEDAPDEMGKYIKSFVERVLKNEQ
compound,measurement,setting,value
"Oc1ccc(-c2cn3c(O)c(Cc4ccc(F)cc4)nc3c(CC3CCCC3)n2)cc1 [fcp, Coelenterazine fcp]",λem (nm),[1],452 nm
same,Half-rise time,[1],0.4 to 0.8 s
same,Relative intensity,[1],135
same,Relative luminescence capacity,[1],0.57
Coelenterazine n,λem (nm),[1],467 nm
same,Half-rise time,[1],5 s
same,Relative intensity,[1],0.01
same,Relative luminescence capacity,[1],0.26
"Oc1ccc(Cc2nc3c(Cc4ccccc4)nc(-c4ccc(O)cc4)cn3c2O)cc1 [Native, Coelenterazine]",λem (nm),[1],465 nm
same,Half-rise time,[1],0.4 to 0.8 s
same,Relative intensity,[1],1.00
same,Relative luminescence capacity,[1],1.0
"Oc1ccc(-c2cn3c(O)c(Cc4ccccc4)nc3c(CC3CCCC3)n2)cc1 [hcp, Coelenterazine hcp]",λem (nm),[1],444 nm
same,Relative intensity,[1],190
same,Relative luminescence capacity,[1],0.67
"Oc1ccc(Cc2nc3c(CC4CCCC4)nc(-c4ccc(O)cc4)cn3c2O)cc1 [Cp, Coelenterazine cp]",λem (nm),[2],470 nm
same,Initial Intensity (%),[2],135%
same,Total Light (%),[2],23%
same,λem (nm),[1],442 nm
same,Half-rise time,[1],0.15 to 0.3 s
same,Relative intensity,[1],15
same,Relative luminescence capacity,[1],0.95
Coelenterazine ip,λem (nm),[1],441 nm
same,Half-rise time,[1],1 s
same,Relative intensity,[1],47
same,Relative luminescence capacity,[1],0.54
Coelenterazine h,λem (nm),[1],475 nm
same,Half-rise time,[1],0.4 to 0.8 s
same,Relative intensity,[1],10
same,Relative luminescence capacity,[1],0.82
Coelenterazine f,λem (nm),[2],473 nm
same,Initial Intensity (%),[2],45%
same,Total Light (%),[2],28%
same,λem (nm),[1],473 nm
same,Half-rise time,[1],0.4 to 0.8 s
same,Relative intensity,[1],18
same,Relative luminescence capacity,[1],0.80
"O=c1c(Cc2ccc(I)cc2)nc2c(Cc3ccccc3)[nH]c(-c3ccc(O)cc3)cn1-2 [i, Coelenterazine i]",λem (nm),[1],476 nm
same,Half-rise time,[1],8 s
same,Relative intensity,[1],0.03
same,Relative luminescence capacity,[1],0.70
